From PubChem BioAssay AID248 (DTP/NCI, 2004)
Several values for one entry are separate records, joined by “and”; a condition that tells them apart may be missing. Identical values can stand only once. Toxic doses and inconclusive results are not listed. Rule as the data show it: active = T/C of 150% or more; inactive = T/C below 125%.

Test system: L1210 leukemia ip in BDF1 mice, survival T/C
Test: NCI In Vivo Anticancer Drug Screen. Data for tumor model L1210 Leukemia (intraperitoneal) in B6D2F1 (BDF1) mice
Details: endpoint: mean survival time, higher = longer survival
Summary of the method: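 Transplantable tumor model; survival measured in treated vs vehicle control mice. Value = treated/control.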

[1] = dose: 100.0 mg/kg/injection, schedule: Q01DX001 (ip), vehicle: carboxymethylcellulose (CMC)
[2] = dose: 200.0 mg/kg/injection, schedule: Q01DX001 (ip), vehicle: carboxymethylcellulose (CMC)
[3] = dose: 400.0 mg/kg/injection, schedule: Q01DX001 (ip), vehicle: carboxymethylcellulose (CMC)
[4] = dose: 100.0 mg/kg/injection, schedule: Q01DX009 (ip), vehicle: Klucel (hydroxypropylcellulose) (HPC)
[5] = dose: 100.0 mg/kg/injection, schedule: Q04DX003 (ip), vehicle: Klucel (hydroxypropylcellulose) (HPC)
[6] = dose: 200.0 mg/kg/injection, schedule: Q01DX009 (ip), vehicle: Klucel (hydroxypropylcellulose) (HPC)
[7] = dose: 200.0 mg/kg/injection, schedule: Q04DX003 (ip), vehicle: Klucel (hydroxypropylcellulose) (HPC)
[8] = dose: 400.0 mg/kg/injection, schedule: Q04DX003 (ip), vehicle: Klucel (hydroxypropylcellulose) (HPC)
[9] = dose: 400.0 mg/kg/injection, schedule: Q01DX009 (ip), vehicle: Klucel (hydroxypropylcellulose) (HPC)

Measured: T/C

COC(OC)/C(C)=N/NC(N)=O
inactive: [1] 88 % of control | [2] 116 % of control | [3] 108 % of control

O=C(CNC(=O)c1ccccc1)Oc1c(Cl)c(Cl)c(Cl)c(Cl)c1Cl
inactive: dose: 100.0 mg/kg/injection, schedule: Q01DX009 (ip), vehicle: other 104 % of control | dose: 200.0 mg/kg/injection, schedule: Q01DX009 (ip), vehicle: other 98 % of control | dose: 400.0 mg/kg/injection, schedule: Q01DX009 (ip), vehicle: other 93 % of control

CCC(=O)NC(CC(C)C)C(=O)NC(CC(C)C)C(=O)NC(C=O)CCCN=C(N)N (configuration not stated) (tested in a mixture with another compound)
inactive: dose: 25.0 mg/kg/injection, schedule: Q04DX002 (ip), vehicle: saline 98 % of control | dose: 50.0 mg/kg/injection, schedule: Q04DX002 (ip), vehicle: saline 91 % of control | dose: 100.0 mg/kg/injection, schedule: Q04DX002 (ip), vehicle: saline 91 % of control

Nc1ccc(N=Nc2c(Br)cc(S(N)(=O)=O)cc2Br)c(N)n1
inactive: dose: 100.0 mg/kg/injection, schedule: Q01DX001 (ip), vehicle: saline 102 % of control | dose: 200.0 mg/kg/injection, schedule: Q01DX001 (ip), vehicle: saline 100 % of control | dose: 400.0 mg/kg/injection, schedule: Q01DX001 (ip), vehicle: saline 94 % of control

COC1C=COC2(C)Oc3c(C)c(O)c4c(c3C2=O)/C(=N/C2CCC(O)OC2C)C=C(NC(=O)/C(C)=C\C(=O)C2CC2C(O)C(C)C(O)C(C)C(OC(C)=O)C1C)C4=O (configuration not stated)
inactive: dose: 50.0 mg/kg/injection, schedule: Q04DX002 (ip), vehicle: saline with Tween-80 95 % of control | dose: 100.0 mg/kg/injection, schedule: Q04DX002 (ip), vehicle: saline with Tween-80 95 % of control

O=C1CCCc2cc3c(cc21)CCCC3
inactive: [4] 96 % of control | [5] 109 % of control | [6] 97 % of control | [7] 107 % of control | [8] 102 % of control

O=C(/C=C/c1ccccc1)NC(=S)Nc1ncccn1
inactive: dose: 100.0 mg/kg/injection, schedule: Q01DX009 (ip), vehicle: carboxymethylcellulose (CMC) 93 % of control and 96 % of control | dose: 100.0 mg/kg/injection, schedule: Q04DX002 (ip), vehicle: carboxymethylcellulose (CMC) 96 % of control and 104 % of control | dose: 100.0 mg/kg/injection, schedule: Q04DX003 (ip), vehicle: carboxymethylcellulose (CMC) 94 % of control | dose: 200.0 mg/kg/injection, schedule: Q01DX009 (ip), vehicle: carboxymethylcellulose (CMC) 92 % of control and 96 % of control | dose: 200.0 mg/kg/injection, schedule: Q04DX002 (ip), vehicle: carboxymethylcellulose (CMC) 96 % of control and 98 % of control | dose: 200.0 mg/kg/injection, schedule: Q04DX003 (ip), vehicle: carboxymethylcellulose (CMC) 91 % of control | dose: 400.0 mg/kg/injection, schedule: Q01DX009 (ip), vehicle: carboxymethylcellulose (CMC) 96 % of control and 104 % of control | dose: 400.0 mg/kg/injection, schedule: Q04DX002 (ip), vehicle: carboxymethylcellulose (CMC) 96 % of control and 91 % of control

CCC1/C=C/C=C/CC(C)C(O)C(C)(O)C(=O)C(C)C(O)C(C)C(=O)C(C)C(O)C(C)/C=C/C(=O)OC2C(C)C(CC1)OC1(OC(CC(C)O)C(C)CC1=O)C2C (configuration not stated) (tested in a mixture with another compound)
inactive: dose: 0.08 mg/kg/injection, schedule: Q01DX009 (ip), vehicle: saline 102 % of control | dose: 0.16 mg/kg/injection, schedule: Q01DX009 (ip), vehicle: saline 103 % of control | dose: 0.16 mg/kg/injection, schedule: Q04DX003 (ip), vehicle: saline 117 % of control | dose: 0.31 mg/kg/injection, schedule: Q01DX009 (ip), vehicle: saline 102 % of control | dose: 0.32 mg/kg/injection, schedule: Q01DX001 (ip), vehicle: saline 118 % of control | dose: 0.32 mg/kg/injection, schedule: Q01DX009 (ip), vehicle: saline 113 % of control | dose: 0.32 mg/kg/injection, schedule: Q04DX003 (ip), vehicle: saline 117 % of control | dose: 0.44 mg/kg/injection, schedule: Q01DX Z (ip), vehicle: other 114 % of control | dose: 0.44 mg/kg/injection, schedule: Q01DX Z (ip), vehicle: saline 100 % of control | dose: 0.47 mg/kg/injection, schedule: Q01DX009 (ip), vehicle: saline with Tween-80 120 % of control | dose: 0.47 mg/kg/injection, schedule: Q01DX009 (ip), vehicle: saline 101 % of control | dose: 0.63 mg/kg/injection, schedule: Q01DX009 (ip), vehicle: saline 104 % of control | dose: 0.66 mg/kg/injection, schedule: Q01DX Z (ip), vehicle: other 122 % of control | dose: 0.66 mg/kg/injection, schedule: Q01DX Z (ip), vehicle: saline 96 % of control | dose: 0.7 mg/kg/injection, schedule: Q01DX009 (ip), vehicle: saline 102 % of control | dose: 0.8 mg/kg/injection, schedule: Q01DX Z (ip), vehicle: methylcellulose (MC) 110 % of control | dose: 1.0 mg/kg/injection, schedule: Q01DX Z (ip), vehicle: saline 109 % of control and 116 % of control | dose: 1.2 mg/kg/injection, schedule: Q01DX Z (ip), vehicle: methylcellulose (MC) 106 % of control | dose: 1.25 mg/kg/injection, schedule: Q01DX009 (ip), vehicle: saline 102 % of control | dose: 1.5 mg/kg/injection, schedule: Q01DX Z (ip), vehicle: other 115 % of control | dose: 1.5 mg/kg/injection, schedule: Q01DX Z (ip), vehicle: saline 102 % of control and 118 % of control | dose: 1.8 mg/kg/injection, schedule: Q01DX Z (ip), vehicle: methylcellulose (MC) 106 % of control | dose: 2.5 mg/kg/injection, schedule: Q01DX009 (ip), vehicle: saline 96 % of control | dose: 2.6 mg/kg/injection, schedule: Q01DX001 (ip), vehicle: saline 112 % of control | dose: 2.7 mg/kg/injection, schedule: Q01DX Z (ip), vehicle: methylcellulose (MC) 107 % of control | dose: 4.0 mg/kg/injection, schedule: Q01DX001 (ip), vehicle: saline 117 % of control | dose: 4.0 mg/kg/injection, schedule: Q01DX Z (ip), vehicle: methylcellulose (MC) 102 % of control | dose: 5.0 mg/kg/injection, schedule: Q01DX009 (ip), vehicle: saline 110 % of control | dose: 6.0 mg/kg/injection, schedule: Q01DX001 (ip), vehicle: saline 123 % of control | dose: 8.0 mg/kg/injection, schedule: Q01DX Z (ip), vehicle: methylcellulose (MC) 92 % of control | dose: 10.0 mg/kg/injection, schedule: Q01DX009 (ip), vehicle: saline 124 % of control

O=C(Nc1cc(C(F)(F)F)ccc1Cl)n1cccc1
inactive: [4] 113 % of control | [6] 113 % of control | [9] 106 % of control

Cc1cc(=O)oc2cc(OCc3ccccc3)cc(O)c12
inactive: dose: 75.0 mg/kg/injection, schedule: Q01DX001 (ip), vehicle: other 103 % of control | dose: 150.0 mg/kg/injection, schedule: Q01DX001 (ip), vehicle: other 108 % of control | dose: 300.0 mg/kg/injection, schedule: Q01DX001 (ip), vehicle: other 108 % of control

O=C(NC(=O)C(Cl)Cl)Nc1cccc2c1Cc1ccccc1-2
inactive: dose: 50.0 mg/kg/injection, schedule: Q04DX003 (ip), vehicle: Klucel (hydroxypropylcellulose) (HPC) 105 % of control | dose: 100.0 mg/kg/injection, schedule: Q01DX001 (ip), vehicle: Klucel (hydroxypropylcellulose) (HPC) 100 % of control | [4] 98 % of control | [5] 96 % of control and 101 % of control | dose: 200.0 mg/kg/injection, schedule: Q01DX001 (ip), vehicle: Klucel (hydroxypropylcellulose) (HPC) 89 % of control | [6] 93 % of control | [7] 100 % of control | dose: 400.0 mg/kg/injection, schedule: Q01DX001 (ip), vehicle: Klucel (hydroxypropylcellulose) (HPC) 94 % of control | [9] 93 % of control | [8] 90 % of control and 92 % of control

CCOC(=O)C1(Br)CCN(S(=O)(=O)c2ccc(C)cc2)c2ccccc2C1=O (configuration not stated)
inactive: [1] 108 % of control | [2] 103 % of control | [3] 100 % of control
